Legend:
Conditions in all cases: average where tested multiple times
[1] = target: T1, BCAT2 (Homo sapiens, UniProt O15382); test: BCAT2 in vitro enzyme inhibition assay (resazurin/diaphorase-coupled fluorescence); type: biochemical
T1 sequence (O15382 28-392): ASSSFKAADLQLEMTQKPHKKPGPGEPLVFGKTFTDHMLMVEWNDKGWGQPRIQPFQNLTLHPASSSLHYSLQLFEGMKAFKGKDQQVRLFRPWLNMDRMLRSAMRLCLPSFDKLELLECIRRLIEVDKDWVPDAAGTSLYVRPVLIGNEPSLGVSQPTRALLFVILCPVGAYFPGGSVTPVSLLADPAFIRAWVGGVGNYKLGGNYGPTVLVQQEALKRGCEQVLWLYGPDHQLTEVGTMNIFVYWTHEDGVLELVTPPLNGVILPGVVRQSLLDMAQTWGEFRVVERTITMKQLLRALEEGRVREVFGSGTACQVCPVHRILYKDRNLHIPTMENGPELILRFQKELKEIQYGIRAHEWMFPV
Outline: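 Coupled fluorescence readout: glutamate formed from L-leucine/α-ketoglutarate transamination drives GDH/NAD/diaphorase reduction of resazurin (Ex 540/Em 590). Human BCAT2 was first exposed 1 h at room temperature to compound, top final 100 μM in 3-fold, 10-point series; substrate reaction ran 1 h before SDS quench, in technical duplicate with DMSO max and enzyme-free min controls.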

[2] = target: T2, hBCAT1 (Homo sapiens, UniProt P54687); test: BCAT1 in vitro enzyme inhibition assay (resazurin/diaphorase-coupled fluorescence); type: biochemical
T2 sequence (P54687 1-386): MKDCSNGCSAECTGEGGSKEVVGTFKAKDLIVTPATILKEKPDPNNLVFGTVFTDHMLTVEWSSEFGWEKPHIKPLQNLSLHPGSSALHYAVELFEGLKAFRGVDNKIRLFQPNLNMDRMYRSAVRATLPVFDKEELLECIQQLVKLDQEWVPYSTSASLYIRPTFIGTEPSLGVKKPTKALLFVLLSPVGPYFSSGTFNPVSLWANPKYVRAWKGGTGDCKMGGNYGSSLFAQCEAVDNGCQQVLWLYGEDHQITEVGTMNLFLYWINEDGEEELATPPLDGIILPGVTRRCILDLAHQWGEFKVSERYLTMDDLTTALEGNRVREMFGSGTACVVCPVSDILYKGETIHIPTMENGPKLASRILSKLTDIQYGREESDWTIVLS
Outline: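 Human BCAT1 activity read by resazurin/diaphorase-coupled fluorescence. Compounds added from 50× DMSO stocks at 1:50, giving 10-point 3-fold titrations from 100 μM top final concentration. Run in technical duplicate; repeat tests averaged.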

[3] = target: T1, BCAT2; test: BCAT2 in vitro cell inhibition using engineered A549 cells (KMV cell assay, 13C6-KMV by LC-MS/MS); type: cell-based; set-up: The result was an engineered A549 cell line that expressed endogenous BCAT2; endogenous in cells; host or cells: A549 cells with MUT and BCAT1 knocked out by CRISPR/CAS9

IC50 [1] [nM] | IC50 [2] [nM] | IC50 [3] [nM] | SMILES
≤ 100 | < 500 | ≤ 100 | CC(C)Cc1nc2cnc(-c3nc[nH]n3)cc2n1[C@@H]1CCC[C@H](NC(=O)c2ccc(C(F)(F)F)s2)C1 [Example 342, N-((1S,3R)-3-(2-isobutyl-6-(1H-1,2,4-triazol-3-yl)-1H-imidazo[4,5-c]pyridin-1-yl)cyclohexyl)-5-(trifluoromethyl)thiophene-2-carboxamide]
≤ 100 | 1000 to 5000 | 100 to 500 | COc1ccc(F)c(-c2nc3cnc(-c4nc[nH]n4)cc3n2[C@@H]2CCC[C@H](NC(=O)c3ccc(Cl)s3)C2)c1 [Example 343, 5-chloro-N-((1S,3R)-3-(2-(2-fluoro-5-methoxyphenyl)-6-(1H-1,2,4-triazol-3-yl)-1H-imidazo[4,5-c]pyridin-1-yl)cyclohexyl)thiophene-2-carboxamide]
≤ 100 | < 500 | ≤ 100 | CC(C)Cc1nc2cnc(-c3nc[nH]n3)cc2n1[C@@H]1CCC[C@H](NC(=O)c2ccc(C#N)s2)C1 [Example 344, 5-cyano-N-((1S,3R)-3-(2-isobutyl-6-(1H-1,2,4-triazol-3-yl)-1H-imidazo[4,5-c]pyridin-1-yl)cyclohexyl)thiophene-2-carboxamide]
100 to 500 | 500 to 1000 | 500 to 1000 | N#Cc1ccc(F)c(-c2nc3cnc(-c4nc[nH]n4)cc3n2[C@@H]2CCC[C@H](NC(=O)c3ccc(Cl)s3)C2)c1 [Example 345, 5-chloro-N-((1S,3R)-3-(2-(5-cyano-2-fluorophenyl)-6-(1H-1,2,4-triazol-3-yl)-1H-imidazo[4,5-c]pyridin-1-yl)cyclohexyl)thiophene-2-carboxamide]
100 to 500 | > 5000 | > 1000 | CC(C)Cc1nc2cnc(-n3cc(CO)nn3)cc2n1[C@@H]1CCC[C@H](NC(=O)c2ncc(Cl)s2)C1 [Example 346, 5-chloro-N-((1S,3R)-3-(6-(4-(hydroxymethyl)-1H-1,2,3-triazol-1-yl)-2-isobutyl-1H-imidazo[4,5-c]pyridin-1-yl)cyclohexyl)thiazole-2-carboxamide]
≤ 100 | < 500 | ≤ 100 | COc1cccc(F)c1-c1nc2cnc(-c3nc[nH]n3)cc2n1[C@@H]1CCC[C@H](NC(=O)c2ccc(Cl)s2)C1 [Example 347, 5-chloro-N-((1S,3R)-3-(2-(2-fluoro-6-methoxyphenyl)-6-(1H-1,2,4-triazol-3-yl)-1H-imidazo[4,5-c]pyridin-1-yl)cyclohexyl)thiophene-2-carboxamide]
≤ 100 | < 500 | ≤ 100 | COc1cccc(-c2nc3cnc(-c4nc[nH]n4)cc3n2[C@@H]2CCC[C@H](NC(=O)c3ccc(Cl)s3)C2)c1F [Example 348, 5-chloro-N-((1S,3R)-3-(2-(2-fluoro-3-methoxyphenyl)-6-(1H-1,2,4-triazol-3-yl)-1H-imidazo[4,5-c]pyridin-1-yl)cyclohexyl)thiophene-2-carboxamide]
≤ 100 | < 500 | 100 to 500 | CC(C)Cc1nc2cnc(-c3nc[nH]n3)cc2n1[C@@H]1CCC[C@H](NC(=O)c2ncc(C#N)s2)C1 [Example 349, 5-cyano-N-((1S,3R)-3-(2-isobutyl-6-(1H-1,2,4-triazol-3-yl)-1H-imidazo[4,5-c]pyridin-1-yl)cyclohexyl)thiazole-2-carboxamide]
≤ 100 | 500 to 1000 | 100 to 500 | CC(C)Cc1nc2cnc(-n3ncc(C(C)O)n3)cc2n1[C@@H]1CCC[C@H](NC(=O)c2ncc(Cl)s2)C1 (stereo partly drawn) [Example 350, 5-chloro-N-((1S,3R)-3-(6-(4-(1-hydroxyethyl)-2H-1,2,3-triazol-2-yl)-2-isobutyl-1H-imidazo[4,5-c]pyridin-1-yl)cyclohexyl)thiazole-2-carboxamide]
100 to 500 | 1000 to 5000 | 500 to 1000 | COc1ccc(-c2nc3cnc(-c4nc[nH]n4)cc3n2[C@@H]2CCC[C@H](NC(=O)c3ccc(Cl)s3)C2)c(F)c1 [Example 351, 5-chloro-N-((1S,3R)-3-(2-(2-fluoro-4-methoxyphenyl)-6-(1H-1,2,4-triazol-3-yl)-1H-imidazo[4,5-c]pyridin-1-yl)cyclohexyl)thiophene-2-carboxamide]
≤ 100 | < 500 | ≤ 100 | COc1ccccc1-c1nc2cnc(-c3nc[nH]n3)cc2n1[C@@H]1CCC[C@H](NC(=O)c2ncc(Cl)s2)C1 [Example 352, 5-chloro-N-((1S,3R)-3-(2-(2-methoxyphenyl)-6-(1H-1,2,4-triazol-3-yl)-1H-imidazo[4,5-c]pyridin-1-yl)cyclohexyl)thiazole-2-carboxamide]
≤ 100 | < 500 | ≤ 100 | O=C(N[C@H]1CCC[C@@H](n2c(-c3c(O)cccc3F)nc3cnc(-n4nccn4)cc32)C1)c1ncc(Cl)s1 [Example 354, 5-chloro-N-((1S,3R)-3-(2-(2-fluoro-6-hydroxyphenyl)-6-(2H-1,2,3-triazol-2-yl)-1H-imidazo[4,5-c]pyridin-1-yl)cyclohexyl)thiazole-2-carboxamide]
≤ 100 | < 500 | ≤ 100 | N#CCc1ccccc1-c1nc2cnc(-c3nc[nH]n3)cc2n1[C@@H]1CCC[C@H](NC(=O)c2ncc(Cl)s2)C1 [Example 355, 5-chloro-N-((1S,3R)-3-(2-(2-(cyanomethyl)phenyl)-6-(1H-1,2,4-triazol-3-yl)-1H-imidazo[4,5-c]pyridin-1-yl)cyclohexyl)thiazole-2-carboxamide]
≤ 100 | 500 to 1000 | ≤ 100 | N#Cc1ccccc1-c1nc2cnc(-c3nc[nH]n3)cc2n1[C@@H]1CCC[C@H](NC(=O)c2ccc(Cl)s2)C1 [Example 356, 5-chloro-N-((1S,3R)-3-(2-(2-cyanophenyl)-6-(1H-1,2,4-triazol-3-yl)-1H-imidazo[4,5-c]pyridin-1-yl)cyclohexyl)thiophene-2-carboxamide]
≤ 100 | 500 to 1000 | 100 to 500 | CC(C)Cc1nc2cnc(-c3ncn(C)n3)cc2n1[C@@H]1CCC[C@H](NC(=O)c2ncc(Cl)s2)C1 [Example 358, 5-chloro-N-((1S,3R)-3-(2-isobutyl-6-(1-methyl-1H-1,2,4-triazol-3-yl)-1H-imidazo[4,5-c]pyridin-1-yl)cyclohexyl)thiazole-2-carboxamide]
≤ 100 | < 500 | ≤ 100 | O=C(N[C@H]1CCC[C@@H](n2c(-c3ccccc3O)nc3cnc(-n4nccn4)cc32)C1)c1ncc(Cl)s1 [Example 363, 5-chloro-N-((1S,3R)-3-(2-(2-hydroxyphenyl)-6-(2H-1,2,3-triazol-2-yl)-1H-imidazo[4,5-c]pyridin-1-yl)cyclohexyl)thiazole-2-carboxamide]
≤ 100 | < 500 | ≤ 100 | O=C(N[C@H]1CCCN(n2c(-c3ccccc3F)nc3cnc(-c4nc[nH]n4)cc32)C1)c1ncc(Cl)s1 [Example 364, (S)-5-chloro-N-(1-(2-(2-fluorophenyl)-6-(1H-1,2,4-triazol-3-yl)-1H-imidazo[4,5-c]pyridin-1-yl)piperidin-3-yl)thiazole-2-carboxamide]
≤ 100 | 1000 to 5000 | > 1000 | N#Cc1cccc(-c2nc3cnc(-c4nc[nH]n4)cc3n2[C@@H]2CCC[C@H](NC(=O)c3ccc(Cl)s3)C2)c1F [Example 365, 5-chloro-N-((1S,3R)-3-(2-(3-cyano-2-fluorophenyl)-6-(1H-1,2,4-triazol-3-yl)-1H-imidazo[4,5-c]pyridin-1-yl)cyclohexyl)thiophene-2-carboxamide]

Reference: patent publication US20260159512A1, “BCAT2 INHIBITORS” (AGIOS PHARMACEUTICALS, INC., priority 2021, published 2026)
